Reference: US8609695B2, “Methods of treating and/or suppressing insulin resistance” (Endorecherche, Inc., priority 1999, dated 2013)

Key:
aged Sprague-Dawley rats = details: reduced from 600, without affecting food intake; cited from earlier work
[1] = test system: human endometrial adenocarcinoma Ishikawa cells; test: Alkaline phosphatase activity in Ishikawa cells (Example 11); assay type: cell-based; details: for Stimulation of alkaline phosphatase by tested compounds % of 1 nM E2 stimulation: Ishikawa cells, five days incubation, intrinsic estrogenic activity, hydrochloride
Method: The human Ishikawa cell line derived from a well differentiated endometrial adenocarcinoma was kindly provided by Dr. Erlio Gurpide, The Mount Sinai Medical Center, New York, N.Y. The Ishikawa cells were routinely maintained in Eagle's Minimum Essential Medium (MEM) containing 5% (vol/vol) FBS and supplemented with 100 U/ml penicillin, 100 μg/ml streptomycin, 0.1 mM Non-essential Amino Acids solution. Cells were plated in Falcon T75 flasks at a density of 1.5×10^6 cells at 37 C.
Twenty four hours before the start of an experiment, the medium of near confluent Ishikawa cells was replaced by fresh estrogen-free basal medium (EFBM) consisting of a 1:1 (v:v) mixture of phenol red-free Ham's F-12 and Dulbecco's Modified Eagle's Medium (DMEM) supplemented with 100 U/mL penicillin, 100 μg/mL Streptomycin, 2 mM glutamine, and 5% FBS treated twice with dextran-coated charcoal to remove endogenous steroids. Cells were then harvested by 0.1% pancreatin (Sigma) and 0.25 mM HEPES, resuspended in EFBM and plated in Falcon 96 well flat-bottomed microtiter plates at a density of 2.2×10^4 cells/well in a volume of 100 μl and allowed to adhere to the surface of the plates for 24 h. Thereafter, medium was replaced with fresh EFBM containing the indicated concentrations of compounds in a final volume of 200 μl. Cells were incubated for five days, with a medium change after 48 h.
At the end of the incubation period, microtiter plates were inverted and growth medium was decanted. The plates were rinsed with 200 μL by well of PBS (0.15M NaCl, 10 mM sodium phosphate, pH 7.4). PBS was then removed from the plates while carefully leaving some residual PBS, and the wash procedure was repeated once. The buffered saline was then decanted, and the inverted plates were blotted gently on a paper towel. Following replacement of the covers, the plates were placed at −80 C for 15 min followed by thawing at room temperature for 10 min. The plates were then placed on ice, and 50 μl of an ice-cold solution containing 5 mM p-nitrophenyl phosphate, 0.24 mM MgCl2, and 1 M diethanolamine (pH 9.8) was added. Plates were then warmed to room temperature, and the yellow color from the production of p-nitrophenyl was allowed to develop (8 min). Plates were monitored at 405 nm in an enzyme-linked immunosorbent assay plate reader (BIO-RAD, model 2550 EIA Reader).
Dose-response curves as well as IC50 values were calculated using a weighted iterative nonlinear squares regression.

[2] = test system: human breast cancer MCF-7 cells; test: Proliferation of MCF-7 cell line, DNA content (Example 12); assay type: cell-based
Description: MCF-7 human breast cancer cells were obtained from the American Type Culture Collection # HTB 22 at passage 147 and routinely grown in phenol red-free Dulbecco's Modified Eagle's-Ham's F12 medium, the supplements mentioned above and 5% FBS. The MCF-7 human breast adenocarcinoma cell line was derived from the pleural effusion of a patient. MCF-7 cells were used between passages 148 and 165 and subcultured weekly.
Cells in their late logarithmic growth phase were harvested with 0.1% pancreatin (Sigma) and resuspended in the appropriate medium containing 50 ng bovine insulin/ml and 5% (v/v) FBS treated twice with dextran-coated charcoal to remove endogenous steroids. Cells were plated in 24-well Falcon plastic culture plates (2 cm2/well) at the indicated density and allowed to adhere to the surface of the plates for 72 h. […] Control cells received only the ethanolic vehicle (0.1% EtOH,v/v). Cells were incubated for the specified time intervals with medium changes at 2- or 3-day intervals. Cell number was determined by measurement of DNA content.
Dose-response curves as well IC50 values were calculated using a weighted iterative nonlinear least-squares regression. All results are expressed as means±SEM.

[3] = test system: lean and obese Zucker male rats; test: Energy balance and lipid-lipoprotein metabolism in Zucker male rats (Example 8A); assay type: in vivo, Rattus norvegicus; details: for Lipoprotein lipase activity White retroperitoneal / Lipoprotein lipase activity soleus / Plasma glucose / Plasma insulin / Plasma total cholesterol / Plasma triglycerides / Weight gain: 2.5 mg/kg orally once daily, 14 days; for decrease of body weight gain / reduction of plasma insulin: 2.5 mg/kg/day
Method: The objective of this study was to determine the effect of EM-652.HCl on energy balance and lipid-lipoprotein metabolism in lean and obese Zucker male rats. For this purpose, EM-652.HCl (2.5 mg/kg) was administered orally (gavage) once daily for 14 days to intact lean and obese Zucker male rats.
d) Diet: During the acclimation period, rats received a commercial rodent diet (Purina, #5075) and tap water ad libitum. During study period, rats received the following diet (diet #3) composed of (g/100 g): Starch, 31.2; Dextrose, 31.2; Casein, 20.0; Corn oil, 6.4; dl-Methionine, 0.3; Vitamin mix, 1.0; AIN-76 mineral mix, 4.9; Fiber, 5.0.
Test groups: Sixteen lean and sixteen obese intact male rats were assigned to 4 groups of 8 rats for conduct of the study outlined below
Administration of the tested compound or vehicle started on Day 1 of the study. The tested compound EM-652.HCl was given as suspension in 0.4% methylcellulose by oral gavage (0.5 ml/gavage/rat) once daily for 14 days. Rats from control groups received the vehicle alone (0.5 ml/gavage/rat) for the same time period.
During the acclimation period, animals were weighed one day prior to the start of dosing for randomization. Then, rats were weighed on the first dosing day and every 2 days thereafter as well as on the day of necropsy. Body weights were recorded with a precision of 1 g.
Following an approximative 6-hour fasting period, animals were necropsied (approximately 30 hours after the last dosing). They were anesthesized with ketamine-xylazine and blood drawn by cardiac punction.
Blood lipids (Total cholesterol (CHOL) and Triglycerides (TG)) and glucose were measured on frozen plasma samples using the Boehringer Mannheim Diagnostic Hitachi 911 Analyzer (Boehringer Mannheim Diagnostic Laboratory Systems). Circulating hormones and substrates (Leptin, Insulin) were measured on frozen plasma samples with the following kits: • Leptin: Linco RLA kit • Insulin: Linco RIA kit Organs and Tissues Collected:
The retroperitoneal adipose tissue and the soleus (muscle) were collected and frozen in liquid nitrogen for further determination of lipoprotein lipase (LPL) activity. The prostate, testes (right and left together) and right seminal vesicle (empty of fluid) were weighed. The right seminal vesicles were discarded.

C[C@]12CC[C@H](O)CC1=CC[C@@H]1[C@@H]2CC[C@]2(C)C(=O)CC[C@@H]12 [DHEA, dehydroepiandrosterone]
body weight (aged Sprague-Dawley rats): 550 g

CC1=C(c2ccc(O)cc2)[C@H](c2ccc(OCCN3CCCCC3)cc2)Oc2cc(O)ccc21.Cl [EM-652.HCl, (S)-(+)-7-hydroxy-3-(4′-hydroxyphenyl)-4-methyl-2-(4″-(2′″-piperidino-ethoxy)phenyl)-2H-1-benxopyran hydrochloride]
IC50 ([1]; Homo sapiens, Ishikawa, 120 h, read-out: Inhibition of 1 nM E2 stimulation of alkaline phosphatase by tested compounds IC50): 1.52 ± 0.22 nM
Stimulation of alkaline phosphatase by tested compounds % of 1 nM E2 stimulation [1]: do not show significant estrogenic activity
Stimulation of alkaline phosphatase by tested compounds % of 1 nM E2 stimulation ([1]; listed as EM-652•HCl): 1.88 ± 0.26 (22) % of 1 nM E2 stimulation
IC50 ([2]; Homo sapiens, MCF7, read-out: Inhibition of 1 nM E2 stimulation of DNA by tested compounds IC50): 0.796 nM
EC50 ([2]; Homo sapiens, MCF7, MCF-7 cells, text summary of table 12, read-out: EC50 of inhibition (antiestrogen activity)): 0.8 nM
Stimulation of DNA by tested compounds % of 1 nM E2 stimulation ([2]; MCF-7 cells, absence of E2): N.S.
Lipoprotein lipase activity White retroperitoneal ([3]; lean Zucker male rats): 1701 ± 348 μU/g protein
Lipoprotein lipase activity soleus ([3]; lean Zucker male rats): 69.5 ± 8.4 μU/g protein
Plasma glucose ([3]; lean Zucker male rats): 9.35 ± 0.51 mmol/L
Plasma insulin ([3]; lean Zucker male rats): 0.062 ± 0.005 nmol/L
Plasma total cholesterol ([3]; lean Zucker male rats): 1.18 ± 0.09 mmol/L
Plasma triglycerides ([3]; lean Zucker male rats): 1.52 ± 0.13 mmol/L
Weight gain ([3]; lean Zucker male rats): 44.9 ± 3.5 g
decrease of body weight gain ([3]; lean male Zucker rats): 38%
reduction of plasma insulin ([3]; lean male Zucker rats): 35%
Lipoprotein lipase activity White retroperitoneal ([3]; obese Zucker male rats): 7046 ± 1185 μU/g protein
Lipoprotein lipase activity soleus ([3]; obese Zucker male rats): 58.1 ± 4.6 μU/g protein
Plasma glucose ([3]; obese Zucker male rats): 11.84 ± 0.62 mmol/L
Plasma insulin ([3]; obese Zucker male rats): 0.475 ± 0.087 nmol/L
Plasma total cholesterol ([3]; obese Zucker male rats): 2.28 ± 0.25 mmol/L
Plasma triglycerides ([3]; obese Zucker male rats): 7.16 ± 1.06 mmol/L
Weight gain ([3]; obese Zucker male rats): 71.6 ± 3.3 g
decrease of body weight gain ([3]; obese male Zucker rats): 35%
reduction of plasma insulin ([3]; obese male Zucker rats): 57%
